Assay results published in US11931451B2, “Skin lightening compounds from fruit seed extracts” (WiSys Technology Foundation, Inc., priority 2016, dated 2024).

What was measured:
[1] = Solubility of extracts and reference compounds in solvents / assay medium; assay type: physicochemical
Description: A 2.5 gram sample of a red raspberry seed extract in a dry powder form was split into two fractions, one combined 1.25 grams of the dry extract with 11.25 grams of water to create a 10% aqueous solution of the extract. […] Combining 1.25 grams of the dry extract with about 11.25 grams of Isopropyl alcohol (91%) produced an about 10% alcohol solution.
Using pure water was explored in extraction experiments with cranberry seed powder. The advantages of using water were essentially zero cost and toxicity. […] The limitations of using water were that it gave quite low yields in extractions at room temperature and only dissolved the most polar compounds from the seed powders, leaving most of the medium polarity materials behind. It is possible that this could be improved by heating. […] Simply filtering the mixture through inexpensive filter paper by gravity or mild vacuum was unsuccessful. One solution that worked was mixing in filtering media (diatomaceous earth) and then vacuum filtering through a bed of the same filtering medium. To completely clarify the mixture, an additional treatment with activated carbon and further vacuum filtering through a bed of diatomaceous earth was effective. Given the limitations of water extraction, it was not used extensively. One exception was the use of sodium hydroxide solutions in water to extract pomegranate seed powder, which contained significant amounts of the targeted compound ellagic acid. […] Therefore, 1 M aqueous sodium hydroxide solution was used to extract this material from pomegranate seed powder. After filtering away the solid seed material the solution was acidified to pH=4 by addition of 1 N HCl. A small amount of solid developed, which was filtered with some difficulties.
The extracts in Tables 2 and 3, prepared from 70:30 methanol/water, were tested for their ability to inhibit tyrosinase at concentrations of 1.0 mg/mL, 0.1 mg/mL, 0.01 mg/mL, and in some cases 0.001 mg/mL. For comparison several other known tyrosinase inhibitors including kojic acid, alpha-arbutin, beta-arbutin, hydroquinone, and quercetin were tested. Kojic acid is often used in tyrosinase inhibition studies as a benchmark inhibitor for comparison with other inhibitors. I included beta-arbutin and hydroquinone due to their relevance in skin whitening applications. Additionally, several commercial skin whitening agents were also tested. These included a product called Radian Skin from BASF, and an arbutin material sold by the company Presperse. […] Even highly dilute samples of ellagic acid were not sufficiently soluble. […] Finally, a mixture of red raspberry and tomato extracts (FIG. 10) was tested to look for possible synergistic effects in mixtures on two quite different materials. […]

[2] = system: tyrosinase enzyme (from mushroom); test: Tyrosinase inhibition assay (L-DOPA to dopachrome, absorbance at 475 nm); assay type: biochemical; details: 0.001-1 mg/mL, FIGS. 11-12
Experimental: Extracts were tested for their ability to inhibit the enzyme tyrosinase. This enzyme catalyzes the air oxidation of L-DOPA (colorless) to the compound dopachrome, which is a highly colored intermediate in the production of melanin. The dopachrome molecule absorbs strongly at 475 nm. So, measuring the rate of change of absorption at this wavelength using UV/visible spectroscopy can easily assess the enzyme's activity. The tyrosinase enzyme (from mushroom) was purchased from Sigma-Aldrich as a lyophilized powder with an activity of 5771 units per mg of solid (a unit of activity is defined as the rate at which the enzyme catalyzes the reaction of a standard substrate at a standard concentration). […] Next, the enzyme solution was added (500 μL), the cuvette was covered with a piece of Parafilm and inverted twice to thoroughly mix the solutions, and immediately after the cuvette was placed in a UV/visible spectrometer and absorbance was measured at 475 nm every second for 60 seconds. The slope of the line formed by graphing change in absorbance versus time gave the rate in units of AA/second. […] Percentage inhibition values were calculated by taking the rate of the blank run with no inhibitor minus the rate of the inhibited sample and then dividing that value by the blank rate and multiplying by 100. […]

Row | solubility (medium not stated) [1] | solubility in water ([1]; high pH) | solubility in water ([1]; neutral pH) | solubility in the enzyme assay ([1]; tyrosinase assay medium) | tyrosinase inhibition strength (in words, from dose-response curves) [2] | Compound
1 | highly insoluble | very water soluble | only slightly soluble | highly insoluble |  | O=c1oc2c(O)c(O)cc3c(=O)oc4c(O)c(O)cc1c4c23 [ellagic acid]
2 |  |  |  |  | strongest inhibitor | O=c1cc(CO)occ1O [kojic acid]
3 |  |  |  |  | considerably more potent than the others | O=c1c(O)c(-c2ccc(O)c(O)c2)oc2cc(O)cc(O)c12 [quercetin]
